The results in this text go back to patent US20230159509A1 (Amathus Therapeutics, Inc., priority 2020, published 2023).

In the experiment the target is T1, TRAP1 enzyme (Homo sapiens, UniProt Q12931).
T1 construct: 150 nM Trap1 enzyme was incubated with various concentrations of the test compound
T1 sequence (Q12931 60-704): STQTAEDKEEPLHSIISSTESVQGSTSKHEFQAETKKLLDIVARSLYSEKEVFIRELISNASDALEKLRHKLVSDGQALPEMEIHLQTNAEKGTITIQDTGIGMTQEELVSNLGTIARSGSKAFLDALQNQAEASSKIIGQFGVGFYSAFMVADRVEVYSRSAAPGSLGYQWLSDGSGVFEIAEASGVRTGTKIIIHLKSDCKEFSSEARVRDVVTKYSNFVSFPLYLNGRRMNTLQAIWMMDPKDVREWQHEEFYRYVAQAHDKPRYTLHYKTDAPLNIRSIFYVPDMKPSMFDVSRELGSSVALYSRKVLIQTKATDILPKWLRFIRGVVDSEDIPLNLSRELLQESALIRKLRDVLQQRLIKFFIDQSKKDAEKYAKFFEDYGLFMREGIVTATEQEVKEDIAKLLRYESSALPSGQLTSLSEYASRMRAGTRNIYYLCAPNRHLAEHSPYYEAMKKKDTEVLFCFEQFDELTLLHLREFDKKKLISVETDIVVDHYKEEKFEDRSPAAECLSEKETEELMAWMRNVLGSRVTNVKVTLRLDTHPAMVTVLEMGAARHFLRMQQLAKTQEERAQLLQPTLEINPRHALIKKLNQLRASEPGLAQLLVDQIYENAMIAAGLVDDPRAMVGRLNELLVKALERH
Kind of experiment: ADP Glo assay of TRAP1 ATPase activity. Type of experiment: biochemical. The note with it: for activation at 50 µM: 1 h, compound concentration 50 μM, read-out: ADP-Glo Percent Activation at 50 μM; for EC50: concentration for half maximal activation, read-out: ADP GLO DRC: GeoMean EC50; for Emax: maximal percent activation, read-out: ADP GLO DRC: Mean Emax. The essentials:
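ADP-Glo luminescence quantifying ADP from 150 nM TRAP1 preincubated 30 min at 37° C with compound (0.79–100 μM), then 20 μM ATP for 60 min at 37° C. Buffer: 25 mM Pipes pH 7.5, 40 mM KCl, 0.05 mM MgCl2, EGTA, BSA, detergents. ADP from ATP/ADP standard curve; Emax and EC50 from sigmoidal fit.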
(In general: ADP-Glo first removes unused ATP, then detects ADP through luciferase.)

For the compound `COc1ncc(NC(=O)c2ccc(N3CCN(C)CC3)c(Cl)c2)cc1S(=O)(=O)Nc1c(C)cccc1C` [compound 2764], the activation at 50 µM was 181 to 352%.

Turning to `COc1ncc(NC(=O)c2coc(-c3ccccc3)n2)cc1S(=O)(=O)Nc1c(Cl)cccc1C(F)(F)F` [compound 1962, N-(5-(N-(2-chloro-6-(trifluoromethyl)phenyl)sulfamoyl)-6-methoxypyridin-3-yl)-2-phenyloxazole-4-carboxamide], the EC50 lay within 20 to 100 µM and the Emax is 160 to 199%.

Take `COc1ncc(NC(=O)c2cccc(N3CCN(C)CC3)c2)cc1S(=O)(=O)Nc1c(C)cccc1C` [compound 2633]: the activation at 50 µM was in the range of 181 to 352%.

On to `COc1ncc(NC(=O)c2ncc(-c3ccccc3)o2)cc1S(=O)(=O)Nc1c(C)c(-c2ccccc2)nn1C` [compound 1661], for which the EC50 fell in the range of 20 to 100 µM and the maximal response (Emax) was 160 to 199%.

Take `COc1ncc(NC(=O)c2nnsc2C)cc1S(=O)(=O)Nc1c(C)cccc1C` [compound 2780]: the activation at 50 µM is 151 to 180%.

Turning to `CCCc1cc(C(=O)Nc2cnc(OC)c(S(=O)(=O)Nc3c(C)cccc3C)c2)n(C)n1` [compound 2626], the activation at 50 µM was 181 to 352%.

With `COc1ncc(NC(=O)c2cccc(-c3ccnn3C)c2)cc1S(=O)(=O)Nc1c(C)cccc1C` [compound 1942, N-(5-(N-(2,6-dimethylphenyl)sulfamoyl)-6-methoxypyridin-3-yl)-3-(1-methyl-1H-pyrazol-5-yl)benzamide], the concentration for a half-maximal effect (EC50) was in the range of 10 to 20 µM and the Emax is above 300%.

On to `COc1ncc(NC(=O)c2ncc(-c3ccccc3)o2)cc1S(=O)(=O)Nc1c(F)cccc1C(F)(F)F` [compound 1377, N-(5-(N-(2-fluoro-6-(trifluoromethyl)phenyl)sulfamoyl)-6-methoxypyridin-3-yl)-5-phenyloxazole-2-carboxamide], for which the EC50 lay in the range of 20 to 100 µM and the maximal response (Emax) was 160 to 199%.

Regarding `COc1ncc(NC(=O)c2ccc3ncnn3c2)cc1S(=O)(=O)Nc1c(C)cccc1C` [compound 2537], the activation at 50 µM was in the range of 120 to 150%.

For `Cc1cnc(NC(=O)c2ncc(-c3ccccc3)o2)cc1S(=O)(=O)Nc1ccc(Cl)cc1` [compound 1390, N-(4-(N-(4-chlorophenyl)sulfamoyl)-5-methylpyridin-2-yl)-5-phenyloxazole-2-carboxamide], the 50% effective concentration (EC50) lay within 10 to 20 µM and the Emax was in the range of 160 to 199%.

For the compound `COc1ncc(NC(=O)c2ccc(CN3CCCC3)cc2)cc1S(=O)(=O)Nc1c(C)cccc1C` [compound 2751], the activation at 50 µM was in the range of 120 to 150%.

For the compound `COc1ncc(NC(=O)c2csc(-c3ccccc3)n2)cc1S(=O)(=O)Nc1ccc(Cl)nc1C` [compound 1382, N-(5-(N-(6-chloro-2-methylpyridin-3-yl)sulfamoyl)-6-methoxypyridin-3-yl)-2-phenylthiazole-4-carboxamide], the EC50 is 20 to 100 µM and the maximal effect (Emax) fell in the range of 200 to 300%.

Turning to `COc1ncc(NC(=O)c2ccc(NC(C)=O)cc2C)cc1S(=O)(=O)Nc1c(C)cccc1C` [compound 2670], the activation at 50 µM lay in the range of 151 to 180%.

As to `COc1ncc(NC(=O)c2cnc3n2CCCC3)cc1S(=O)(=O)Nc1c(C)cccc1C` [compound 1404, N-(5-(N-(2,6-dimethylphenyl)sulfamoyl)-6-methoxypyridin-3-yl)-5,6,7,8-tetrahydroimidazo[1,2-a]pyridine-3-carboxamide], the EC50 fell in the range of 20 to 100 µM and the maximum response (Emax) was above 300%.

`COc1ncc(NC(=O)c2csc(-c3ccccc3)n2)cc1S(=O)(=O)Nc1cc(F)c(C)cc1C#N` [compound 2155]: the EC50 lay in the range of 10 to 20 µM and the maximum response (Emax) is 200 to 300%.

Consider `COc1ncc(NC(=O)c2ccc(N3CCOCC3)nc2)cc1S(=O)(=O)Nc1c(C)cccc1C` [compound 2554], for which the activation at 50 µM lay within 181 to 352%.

On to `COc1ncc(NC(=O)c2csc(-c3ccccc3)n2)cc1S(=O)(=O)Nc1cccn2nc(C)nc12` [compound 1768], for which the half-maximal effective concentration (EC50) was in the range of 20 to 100 µM and the Emax lay within 200 to 300%.

In the case of `COc1ncc(NC(=O)c2csc(-c3ccccc3)n2)cc1S(=O)(=O)Nc1ccc(C)nc1C` [compound 1780], the concentration for a half-maximal effect (EC50) fell in the range of 20 to 100 µM and the maximum response (Emax) lay in the range of 119 to 159%.

As to `COc1ncc(NC(=O)c2cn(C(C)(C)C)nn2)cc1S(=O)(=O)Nc1c(C)cccc1C` [compound 2755], the activation at 50 µM lay in the range of 151 to 180%.

Regarding `COc1ncc(NC(=O)c2ccnn2C(C)C)cc1S(=O)(=O)Nc1c(C)cccc1C` [compound 2553], the activation at 50 µM lay in the range of 120 to 150%.

In the case of `COc1ncc(NC(=O)c2ncsc2C)cc1S(=O)(=O)Nc1c(C)cccc1C` [compound 2667], the activation at 50 µM was 181 to 352%.

Consider `COc1ncc(NC(=O)c2nsnc2Cl)cc1S(=O)(=O)Nc1c(C)cccc1C` [compound 2687], for which the activation at 50 µM was 151 to 180%.

As for `COc1ncc(NC(=O)c2ncc(-c3ccccc3)o2)cc1S(=O)(=O)Nc1c(C#N)cccc1C(F)(F)F` [compound 1358, N-(5-(N-(2-cyano-6-(trifluoromethyl)phenyl)sulfamoyl)-6-methoxypyridin-3-yl)-5-phenyloxazole-2-carboxamide], the EC50 was in the range of 20 to 100 µM and the Emax is 200 to 300%.

With `COc1ncc(NC(=O)c2cn(C(C)C)nn2)cc1S(=O)(=O)Nc1c(C)cccc1C` [compound 2538], the activation at 50 µM was 120 to 150%.

`COc1ncc(NC(=O)c2csc(-c3ccccc3)n2)cc1S(=O)(=O)Nc1sccc1C` [compound 1954, N-(6-methoxy-5-(N-(3-methylthiophen-2-yl)sulfamoyl)pyridin-3-yl)-2-phenylthiazole-4-carboxamide]: the EC50 fell in the range of 20 to 100 µM and the Emax lay in the range of 119 to 159%.

Regarding `COc1ncc(NC(=O)c2nc(C)oc2C)cc1S(=O)(=O)Nc1c(C)cccc1C` [compound 2692], the activation at 50 µM lay within 120 to 150%.

Consider `COc1ncc(NC(=O)c2cc(OC)n(C)n2)cc1S(=O)(=O)Nc1c(C)cccc1C` [compound 2747], for which the activation at 50 µM fell in the range of 151 to 180%.

With `COc1ncc(NC(=O)c2csc(-c3ccccc3)n2)cc1S(=O)(=O)Nc1ccc(Cl)cn1` [compound 1385, N-(5-(N-(5-chloropyridin-2-yl)sulfamoyl)-6-methoxypyridin-3-yl)-2-phenylthiazole-4-carboxamide], the EC50 is 10 to 20 µM and the Emax is 160 to 199%.

Take `COc1ncc(NC(=O)c2cccc(NC(C)=O)c2)cc1S(=O)(=O)Nc1c(C)cccc1C` [compound 2696]: the activation at 50 µM lay within 181 to 352%.

Regarding `CCc1cc(C(=O)Nc2cnc(OC)c(S(=O)(=O)Nc3c(C)cccc3C)c2)nn1C` [compound 2786], the activation at 50 µM lay within 181 to 352%.

In the case of `COc1ncc(NC(=O)c2ccnn2C)cc1S(=O)(=O)Nc1c(C)cccc1C` [compound 2559], the activation at 50 µM fell in the range of 120 to 150%.

Take `COc1ncc(NC(=O)c2cnn(C)c2C(F)F)cc1S(=O)(=O)Nc1c(C)cccc1C` [compound 2713]: the activation at 50 µM was in the range of 181 to 352%.

In the case of `COc1ncc(NC(=O)c2cnn3c2SCC3)cc1S(=O)(=O)Nc1c(C)cccc1C` [compound 2740], the activation at 50 µM fell in the range of 181 to 352%.

Regarding `COc1ncc(NC(=O)c2cccc3ncoc23)cc1S(=O)(=O)Nc1c(C)cccc1C` [compound 1367, N-(5-(N-(2,6-dimethylphenyl)sulfamoyl)-6-methoxypyridin-3-yl)benzo[d]oxazole-7-carboxamide], the concentration for a half-maximal effect (EC50) lay within 20 to 100 µM and the Emax is above 300%.

Turning to `COc1ncc(NC(=O)c2csc3c2CCCCC3)cc1S(=O)(=O)Nc1c(C)cccc1C` [compound 1486, N-(5-(N-(2,6-dimethylphenyl)sulfamoyl)-6-methoxypyridin-3-yl)-5,6,7,8-tetrahydro-4H-cyclohepta[b]thiophene-3-carboxamide], the EC50 is below 10 µM and the maximum response (Emax) lay within 160 to 199%.

For the compound `COc1ncc(NC(=O)c2csc(-c3ccccc3)n2)cc1S(=O)(=O)Nc1c(C)cc(F)cc1C` [compound 1389, N-(5-(N-(4-fluoro-2,6-dimethylphenyl)sulfamoyl)-6-methoxypyridin-3-yl)-2-phenylthiazole-4-carboxamide], the EC50 is below 10 µM and the Emax lay in the range of 119 to 159%.

Consider `COc1cc(NS(=O)(=O)c2cc(NC(=O)c3csc(-c4ccccc4)n3)cnc2OC)ccn1` [compound 1878], for which the EC50 was 20 to 100 µM and the maximum response (Emax) is 119 to 159%.

For `CCCc1nnsc1C(=O)Nc1cnc(OC)c(S(=O)(=O)Nc2c(C)cccc2C)c1` [compound 2714], the activation at 50 µM was in the range of 181 to 352%.

For `COc1cccnc1C(=O)Nc1cnc(OC)c(S(=O)(=O)Nc2c(C)cccc2C)c1` [compound 2549], the activation at 50 µM lay within 120 to 150%.

In the case of `COc1cc(C(=O)Nc2cnc(OC)c(S(=O)(=O)Nc3c(C)cccc3C)c2)n(C)n1` [compound 2627], the activation at 50 µM lay in the range of 151 to 180%.

On to `COc1ncc(NC(=O)c2cn(C)nc2C(F)F)cc1S(=O)(=O)Nc1c(C)cccc1C` [compound 2551], for which the activation at 50 µM lay within 120 to 150%.

As for `COc1ncc(NC(=O)c2ccon2)cc1S(=O)(=O)Nc1c(C)cccc1C` [compound 2741], the activation at 50 µM is 120 to 150%.

Broadly, the EC50 is the concentration at which the effect is half-maximal. The Emax is the maximal effect, on the per cent scale that the assay sets.
